In general, mortality refers to the share of the test organisms that died.

The values below come from patent US10513496B2, “Aminobenzamide derivatives as useful agents for controlling animal parasites” (BAYER INTELLECTUAL PROPERTY GMBH, priority 2007, dated 2019).

Common to all, as to format: in vivo
Assay [1] concerns Boophilus microplus. As to the kind of experiment: Boophilus microplus test (injection). As to conditions: Rhipicephalus microplus; application rate 20 μg/animal; injected into abdomen of adult engorged female ticks; 100% = all eggs infertile. As for the experimental part:
Boophilus microplus—Test (Injection)
(§1) Solvent: Dimethyl Sulfoxide
(§2) To produce a suitable preparation of active compound, 10 mg of active compound are dissolved in 0.5 ml solvent, and the concentrate is diluted with water to the desired concentration.
Five adult engorged female ticks (Boophilus microplus) are injected with compound solution into the abdomen. Ticks are transferred into replica plates and incubated in a climate chamber for a period of time. Egg deposition of fertile eggs is monitored.
After the specified period of time, mortality in % is determined. 100% means that all eggs are infertile; 0% means that all eggs are fertile.

Assay [2] deals with Ctenocephalides felis. As to the kind of experiment: Ctenocephalides felis test (CTECFE). As to conditions: application rate 100 ppm in cattle blood, adult unfed fleas, 100% = all fleas killed. The protocol:
Ctenocephalides felis—Test (CTECFE)
as §1
To produce a suitable preparation of active compound, 10 mg of active compound are dissolved in 0.5 ml solvent, and the concentrate is diluted with cattle blood to the desired concentration.
Approximately 10 to 15 adult unfed (Ctenocepahlides felis) are placed in flea chambers. The blood chamber, sealed with parafilm on the bottom are filled with cattle blood supplied with compound solution and placed on top of the flea chamber, so that the fleas are able to suck the blood. The blood chamber is heated to 37° C. whereas the flea chamber is kept at room temperature.
After the specified period of time, mortality in % is determined. 100% means that all the fleas have been killed; 0% means that none of the fleas have been killed.

In assay [3] the test system is Lucilia cuprina larvae. The assay is described as follows: Lucillia cuprina test. Conditions: application rate 100 ppm, larvae on minced horse meat, 100% = all larvae killed. The protocol:
as §1, §2
Approximately 20-30 (Lucilia cuprina larvae) are transferred into a test tube containing 1 cm^3 of minced horse meat and 0.5 ml aqueous dilution of test compound.
After the specified period of time, mortality in % is determined. 100% means that all the larvae have been killed; 0% means that none of the larvae have been killed.

Assay [4] deals with Musca domestica. As to the kind of experiment: Musca domestica test. As to conditions: application rate 100 ppm, adults, sponge soaked with sugar and compound solution, 100% = all flies killed. As for the experimental part:
as §1, §2
Prior to the assay, a piece or kitchen sponge is soaked with a mixture of sugar and compound solution and placed into a container. 10 adults (Musca domestica) are placed into the container and closed with a perforated lid.
After the specified period of time, mortality in % is determined. 100% means that all the flies have been killed; 0% means that none of the flies have been killed.

`O=C(Nc1cccc(C(=O)Nc2c(Br)cc(Br)cc2C(F)(F)F)c1)c1ccc(Cl)cc1` [Example I-1-212] displayed a mortality at 0.02 mg in assay [1] of 80%. In assay [2], the mortality at 100 ppm was at least 80%.

Regarding `O=C(Nc1c(I)cc(C(F)(F)F)cc1I)c1cccc(NC(=O)c2cccnc2F)c1` [Example I-1-208], the mortality at 100 ppm in assay [3], in assay [2] and in assay [4] was at least 80% throughout. The molecule also had a mortality at 0.02 mg in assay [1] of 80%.

For the molecule `O=C(Nc1cccc(C(=O)Nc2c(Br)cc(Br)cc2Br)c1)c1ccccc1` [Example I-1-205], the mortality at 0.02 mg in assay [1] turned out to be 80%.

For the molecule `O=C(Nc1cccc(C(=O)Nc2c(I)cc(C(F)(F)F)cc2C(F)(F)F)c1)c1ccc(Cl)cc1` [Example I-1-211], in assay [1], the mortality at 0.02 mg turned out to be 80%.

Regarding `O=C(Nc1cccc(C(=O)Nc2c(I)cc(C(F)(F)F)cc2C(F)(F)F)c1)c1ccc(Cl)cc1` [Example I-1-206], the mortality at 100 ppm in assay [3] and in assay [2] was at least 80% throughout.

Turning to `CCc1cc(SC(F)(F)C(F)(F)F)cc(C)c1NC(=O)c1cccc(NC(=O)c2ccccc2F)c1` [Example I-1-187], the mortality at 100 ppm in assay [3] and in assay [2] was at least 80% throughout. Besides, the mortality at 0.02 mg in assay [1] was 80%.

For `O=C(Nc1cccc(C(=O)Nc2c(I)cc(C(F)(F)F)cc2C(F)(F)F)c1)c1ccccc1` [Example I-1-204], the mortality at 100 ppm in assay [3] and in assay [2] was at least 80% each time. For the same molecule, the mortality at 0.02 mg in assay [1] came to 80%.

For `CCc1cc(SC(F)(F)F)cc(C)c1NC(=O)c1cccc(NC(=O)c2ccccc2F)c1` [Example I-1-186], the mortality at 100 ppm in assay [3] and in assay [2] was at least 80% throughout. Further, the mortality at 0.02 mg in assay [1] was 80%.

As for `O=C(Nc1c(Br)cc(S(F)(F)(F)(F)F)cc1Br)c1cccc(NC(=O)c2ccccc2F)c1` [Example I-1-213], the mortality at 100 ppm in assay [3] and in assay [2] was at least 80% throughout. The molecule further returned a mortality at 0.02 mg in assay [1] of 80%.

Turning to `O=C(Nc1c(I)cc(C(F)(F)F)cc1C(F)(F)F)c1cccc(NC(=O)c2ccccc2F)c1` [Example I-1-203], in assay [1], the mortality at 0.02 mg is 80%. Moreover, the mortality at 100 ppm in assay [2] was at least 80%.

As for `O=C(Nc1c(I)cc(C(F)(F)F)cc1I)c1cccc(NC(=O)c2ccccc2F)c1` [Example I-1-207], the mortality at 100 ppm in assay [3] and in assay [2] was at least 80% each time. For the same molecule, the mortality at 0.02 mg in assay [1] came out at 80%.
